Tested on: oxaliplatin induced hyperalgesia in the mouse
Assay: Cold plate test, oxaliplatin induced hyperalgesia in mice
Format: in vivo
Settings: for Licking latency, 15 min after treatment / Licking latency, 30 min after treatment / Licking latency, 45 min after treatment / Licking latency, 60 min after treatment: day 14, oxaliplatin-treated mice; for Licking latency, Pre-test (48 hrs after last oxaliplatin adm.): baseline before treatment, oxaliplatin 2.4 mg/kg i.p., mean of 10 mice
Protocol: The acute oral effect of Moringa oleifera L. seeds extract and purified GMG and GMG-ITC on oxaliplatin induced hyperalgesia in mice (Cold plate test) were evaluated.
The method utilized is a modification of that described by Cavalletti et al. (Cavalletti G. et al., Eur. J. Cancer 37(18), 2457, 2001). Oxaliplatin (2.4 mg/kg) was dissolved in 5% glucose solution and administered i.p. for 5 consecutive days every week for 14 days. On day 14, the test products were suspended in 1% CMC and administered orally. Pregabalin was used, in the same experimental conditions, as a reference active compound at the dose of 15 mg/kg s.c. dissolved in saline.
Pain-related behavior (i.e. lifting and licking of the hind paw) were observed and the time (seconds) of the first sign was recorded.

[1] = group later given 10 mg kg^-1 orally

| Structure (SMILES) | Licking latency, 15 min after treatment (10 mg kg^-1 oral, acute) | Licking latency, 30 min after treatment (10 mg kg^-1 oral, acute) | Licking latency, 45 min after treatment (10 mg kg^-1 oral, acute) | Licking latency, 60 min after treatment (10 mg kg^-1 oral, acute) | Licking latency, Pre-test (48 hrs after last oxaliplatin adm.) [1] | Licking latency, 15 min after treatment (15 mg kg^-1 s.c.) | Licking latency, 30 min after treatment (15 mg kg^-1 s.c.) | Licking latency, 45 min after treatment (15 mg kg^-1 s.c.) | Licking latency, 60 min after treatment (15 mg kg^-1 s.c.) | Licking latency, Pre-test (48 hrs after last oxaliplatin adm.) (group later given 15 mg kg^-1 s.c.) |
| --- | --- | --- | --- | --- | --- | --- | --- | --- | --- | --- |
| C[C@@H]1O[C@@H](Oc2ccc(C/C(=N/OS(=O)(=O)O)S[C@@H]3O[C@H](CO)[C@@H](O)[C@H](O)[C@H]3O)cc2)[C@H](O)[C@H](O)[C@H]1O [GMG, 4-(α-L-rhamnosyloxy)-benzyl glucosinolate] | 21.1 ± 1.9^^ s | 16.2 ± 0.7^ s | 15.1 ± 1.3^ s | 13.5 ± 2.3 s | 10.3 ± 0.5 s | – | – | – | – | – |
| C[C@@H]1O[C@@H](Oc2ccc(CN=C=S)cc2)[C@H](O)[C@H](O)[C@H]1O [GMG-ITC, 4-(α-L-rhamnosyloxy)-benzyl isothiocyanate] | 20.9 ± 1.8^^ s | 16.0 ± 0.6^ s | 15.0 ± 1.2^ s | 13.3 ± 2.1 s | 10.2 ± 0.4 s | – | – | – | – | – |
| CC(C)C[C@H](CN)CC(=O)O [pregabalin, reference compound] | – | – | – | – | – | 19.9 ± 1.9^ s | 16.1 ± 0.6^ s | 14.9 ± 1.3^ s | 13.1 ± 2.0 s | 11.0 ± 0.7 s |
